How the values were obtained:
Simplexvirus = assay: Antiviral activity against Herpes simplex virus; type: functional, organism-based
Human alphaherpesvirus 3 = assay: Antiviral activity against Varicella zoster virus; type: functional, organism-based
[1] = system: Human immunodeficiency virus 2; assay: Antiviral activity against HIV2; type: functional, organism-based
Human alphaherpesvirus 1 = assay: Antiviral activity against Herpes simplex virus 1; type: functional, organism-based
Human alphaherpesvirus 2 = assay: Antiviral activity against Herpes simplex virus 2; type: functional, organism-based
[2] = system: Human immunodeficiency virus 1; assay: Antiviral activity against HIV1; type: functional, organism-based
Vaccinia virus = assay: Antiviral activity against Vaccinia virus; type: functional, organism-based, Orthopoxvirus vaccinia; conditions: Orthopoxvirus vaccinia
Human rhinovirus sp. = assay: Antiviral activity against Human rhinovirus; type: functional, organism-based
Human betaherpesvirus 5 = assay: Antiviral activity against Human cytomegalovirus; type: functional, organism-based; conditions: Human betaherpesvirus 5
Cowpox virus = assay: Antiviral activity against Cowpox virus; type: functional, organism-based
[3] = system: Moloney murine sarcoma virus; assay: Antiviral activity against Moloney sarcoma virus; type: functional, organism-based

O=C(NCc1ccc(Cl)cc1)c1cnc2ccc(C#CCO)cc2c1O
IC50 (Simplexvirus): 20 µM | IC50 (Human alphaherpesvirus 3): 680 nM

Cc1cc(OCCOCP(=O)(O)O)nc(N)n1
IC50 [1]: 0.433 nM

C=CCc1c(N)nc(N)n(CCOCP(=O)(O)O)c1=O
IC50 (Human alphaherpesvirus 1; Human alphaherpesvirus 1): 1.2 nM | IC50 (Human alphaherpesvirus 2; Human alphaherpesvirus 2): 0.77 nM | IC50 [2]: 0.3 nM | IC50 [1]: 0.3 nM | IC50 (Vaccinia virus): 1.2 nM | IC50 (Human alphaherpesvirus 3): 0.15 nM

CCOC(=O)/C=C/[C@H](CCC(N)=O)NC(=O)[C@H](CC1CCCCC1)n1cccc(NC(=O)OCc2ccccc2)c1=O
IC50 (Human rhinovirus sp.): 178 nM

CCOC(=O)/C=C/[C@H](C[C@@H]1CCNC1=O)NC(=O)/C=C/c1ccc2c(c1)OCO2
IC50 (Human rhinovirus sp.): 1810 nM

Nc1ncnc2c1c(Br)cn2COC(CO)CO
IC50 (Simplexvirus): 1.8 µM | IC50 (Human betaherpesvirus 5): 1500 nM

CCOC(=O)/C=C/[C@H](CCC(N)=O)NC(=O)[C@H](Cc1ccccc1)n1cccc(NC(=O)C2SCCS2)c1=O
IC50 (Human rhinovirus sp.): 104 nM

CCOC(=O)/C=C/[C@H](CCC(N)=O)NC(=O)[C@H](Cc1ccc(F)c(F)c1)n1cccc(NC(=O)OCc2ccccc2)c1=O
IC50 (Human rhinovirus sp.): 3 nM

Nc1ncnc2c1c(Br)cn2COCCO
IC50 (Simplexvirus): 16 µM

Nc1nc(N)c(C2CC2)c(OCCOCP(=O)(O)O)n1
IC50 (Human alphaherpesvirus 1; Human alphaherpesvirus 1): 1.2 nM | IC50 (Human alphaherpesvirus 2; Human alphaherpesvirus 2): 1.2 nM | IC50 [2]: 0.3 nM | IC50 [1]: 0.3 nM | IC50 (Human betaherpesvirus 5): 1.2 nM | IC50 (Vaccinia virus): 1.2 nM | IC50 (Human alphaherpesvirus 3): 1.2 nM

Nc1nc(N)n(CCOCP(=O)(O)O)c(=O)c1CC(=O)O
IC50 (Human alphaherpesvirus 1; Human alphaherpesvirus 1): 1.2 nM | IC50 (Human alphaherpesvirus 2; Human alphaherpesvirus 2): 1.2 nM | IC50 [2]: 0.3 nM | IC50 [1]: 0.3 nM | IC50 (Human betaherpesvirus 5): 0.15 nM | IC50 (Vaccinia virus): 1.2 nM | IC50 (Human alphaherpesvirus 3): 0.15 nM

Cc1c(N)nc(N)n(CCOCP(=O)(O)O)c1=O
IC50 (Human alphaherpesvirus 1; Human alphaherpesvirus 1): 1.2 nM | IC50 (Human alphaherpesvirus 2; Human alphaherpesvirus 2): 0.12 nM | IC50 [2]: 0.3 nM | IC50 [1]: 0.3 nM | IC50 (Vaccinia virus): 1.2 nM

N#CCc1c(N)nc(N)n(CCOCP(=O)(O)O)c1=O
IC50 (Human alphaherpesvirus 1; Human alphaherpesvirus 1): 1.2 nM | IC50 (Human alphaherpesvirus 2; Human alphaherpesvirus 2): 1.2 nM | IC50 [2]: 0.3 nM | IC50 [1]: 0.3 nM | IC50 (Human betaherpesvirus 5): 0.15 nM | IC50 (Vaccinia virus): 1.2 nM | IC50 (Human alphaherpesvirus 3): 0.084 nM

N#CCc1c(N)nc(N)nc1OCCOCP(=O)(O)O
IC50 (Human alphaherpesvirus 1; Human alphaherpesvirus 1): 1.2 nM | IC50 (Human alphaherpesvirus 2; Human alphaherpesvirus 2): 1.2 nM | IC50 [2]: 0.3 nM | IC50 [1]: 0.3 nM | IC50 (Human betaherpesvirus 5): 0.15 nM | IC50 (Vaccinia virus): 1.2 nM | IC50 (Human alphaherpesvirus 3): 0.11 nM

Nc1nc(N)c(CC(=O)O)c(OCCOCP(=O)(O)O)n1
IC50 (Human alphaherpesvirus 1; Human alphaherpesvirus 1): 1.2 nM | IC50 (Human alphaherpesvirus 2; Human alphaherpesvirus 2): 1.2 nM | IC50 [2]: 0.3 nM | IC50 [1]: 0.3 nM | IC50 (Human betaherpesvirus 5): 0.15 nM | IC50 (Vaccinia virus): 1.2 nM | IC50 (Human alphaherpesvirus 3): 0.15 nM

CCOC(=O)/C=C/[C@H](C[C@@H]1CCNC1=O)NC(=O)/C=C/c1ccc(C)c(Br)c1
IC50 (Human rhinovirus sp.): 1290 nM

C[C@H](Cn1cnc2c(N)ncnc21)OCP(=O)(O)O [TENOFOVIR ANHYDROUS]
IC50 (Cowpox virus): 300 µM | IC50 [2]: 7200 nM | IC50 (Vaccinia virus): 300000 nM

O=C(NCc1ccc(Cl)cc1)c1cnc2ccc(CCCO)cc2c1O
IC50 (Simplexvirus): 11 µM

CCOC(=O)/C=C/[C@H](CCC(N)=O)NC(=O)[C@H](Cc1ccccc1)n1cccc(NC(=O)c2cc(C)on2)c1=O
IC50 (Human rhinovirus sp.): 16 nM

CCOC(=O)/C=C/[C@H](C[C@@H]1CCNC1=O)NC(=O)c1ccc2ccccc2c1
IC50 (Human rhinovirus sp.): 150 nM

CCOC(=O)/C=C/[C@H](CCC(N)=O)NC(=O)Cn1cccc(NC(=O)OCc2ccccc2)c1=O
IC50 (Human rhinovirus sp.): 10000 nM

N#Cc1cn([C@@H]2O[C@H](CO)[C@@H](O)[C@H]2O)c2ncnc(N)c12 [TOYOCAMYCIN]
IC50 (Simplexvirus): 38 µM

Cn1cnc2c(NCc3ccccc3)nc(NCCO)nc21 [OLOMOUCINE]
IC50 (Simplexvirus): 100 µM

CCOC(=O)/C=C/[C@H](CCC(N)=O)NC(=O)[C@H](Cc1ccccc1)n1cccc(NC(=O)C(C)(C)C)c1=O
IC50 (Human rhinovirus sp.): 518 nM

CCOC(=O)/C=C/[C@H](CCC(N)=O)NC(=O)[C@H](Cc1ccccc1)n1cccc(NC(=O)c2cc(Cl)on2)c1=O
IC50 (Human rhinovirus sp.): 240 nM

O=C(NCc1ccc(Cl)cc1)c1cnc2c(F)cccc2c1O
IC50 (Simplexvirus): 13 µM | IC50 (Human betaherpesvirus 5): 11000 nM | IC50 (Human alphaherpesvirus 3): 1200 nM

CCOC(=O)/C=C/[C@H](C[C@@H]1CCNC1=O)NC(=O)C1=Cc2cc(Br)ccc2OC1
IC50 (Human rhinovirus sp.): 180 nM

CN(C)c1cc(=O)n(CCOCP(=O)(O)O)c(N)n1
IC50 [1]: 0.342 nM

CCCCCCCCCCCCCCCCOCCCOP1(=O)CO[C@@H](CN2CCC(N)=NC2=O)CO1 (some centres undefined)
IC50 (Simplexvirus): 0.04 µM | IC50 (Human betaherpesvirus 5): 40 nM | IC50 (Vaccinia virus): 5600 nM

CCOC(=O)/C=C/[C@H](C[C@@H]1CCNC1=O)NC(=O)c1cc(-c2ccccc2)oc1C
IC50 (Human rhinovirus sp.): 1940 nM

Nc1nc(N)n(CCOCP(=O)(O)O)c(=O)c1-c1ccccc1
IC50 (Human alphaherpesvirus 1; Human alphaherpesvirus 1): 1.2 nM | IC50 (Human alphaherpesvirus 2; Human alphaherpesvirus 2): 1.2 nM | IC50 [2]: 0.3 nM | IC50 [1]: 0.3 nM | IC50 (Human betaherpesvirus 5): 0.15 nM | IC50 (Vaccinia virus): 1.2 nM | IC50 (Human alphaherpesvirus 3): 0.15 nM

CCOC(=O)/C=C/[C@H](C[C@@H]1CCNC1=O)NC(=O)[C@H](Cc1ccccc1)n1cccc(NC(=O)OCc2ccccc2)c1=O
IC50 (Human rhinovirus sp.): 3 nM

Nc1nc(N)n(CCOCP(=O)(O)O)c(=O)c1Cc1ccccc1
IC50 (Human alphaherpesvirus 1; Human alphaherpesvirus 1): 1.2 nM | IC50 (Human alphaherpesvirus 2; Human alphaherpesvirus 2): 1.2 nM | IC50 [2]: 0.3 nM | IC50 [1]: 0.3 nM | IC50 (Human betaherpesvirus 5): 0.15 nM | IC50 (Vaccinia virus): 1.2 nM | IC50 (Human alphaherpesvirus 3): 0.15 nM

CCCCCCCCCCCCCCCCCCOCCOP(=O)(O)CO[C@H](CO)Cn1ccc(N)nc1=O
IC50 (Simplexvirus): 0.001 µM | IC50 (Vaccinia virus): 240 nM

Nc1nc(O)cc(NC2CC2)n1
IC50 (Human alphaherpesvirus 1; Human alphaherpesvirus 1): 2.41 nM | IC50 [3]: 0.801 nM

Cc1ccc(Cn2c(N)c(C#N)c3c(N)ncnc32)cc1
IC50 (Simplexvirus): 60 µM

N#Cc1cn([C@@H]2O[C@H](CO)[C@@H](O)[C@@H]2F)c2ncnc(N)c12
IC50 (Simplexvirus): 0.47 µM | IC50 (Human betaherpesvirus 5): 25 nM

CCOC(=O)/C=C/[C@H](C[C@@H]1CCNC1=O)NC(=O)/C=C/c1cccc(Br)c1
IC50 (Human rhinovirus sp.): 1400 nM

Nc1nc(N)c(Cc2ccccc2)c(OCCOCP(=O)(O)O)n1
IC50 (Human alphaherpesvirus 1; Human alphaherpesvirus 1): 1.2 nM | IC50 (Human alphaherpesvirus 2; Human alphaherpesvirus 2): 0.66 nM | IC50 [2]: 0.3 nM | IC50 [1]: 0.3 nM | IC50 (Human betaherpesvirus 5): 0.15 nM | IC50 (Vaccinia virus): 1.2 nM | IC50 (Human alphaherpesvirus 3): 0.15 nM

C=CCNc1nc(N)nc2c1ncn2CCOCP(=O)(O)O
IC50 (Cowpox virus): 115 µM | IC50 (Vaccinia virus): 25000 nM

Nc1nc(O)cc(OCCOCP(=O)(O)O)n1
IC50 (Human alphaherpesvirus 1): 0.025 nM | IC50 (Human alphaherpesvirus 1; Human alphaherpesvirus 1): 0.0362 nM | IC50 (Human alphaherpesvirus 2): 0.033 nM | IC50 (Human alphaherpesvirus 2; Human alphaherpesvirus 2): 0.0362 nM | IC50 [1]: 30.2 nM | IC50 (Human betaherpesvirus 5): 0.19 nM | IC50 (Vaccinia virus): 0.18 nM

CCOC(=O)/C=C/[C@H](C[C@@H]1CCNC1=O)NC(=O)C1=Cc2cc(Cl)ccc2OC1
IC50 (Human rhinovirus sp.): 160 nM

O=c1[nH]cnc2c1ncn2[C@H]1CC[C@@H](CO)O1 [DIDANOSINE]
IC50 (Cowpox virus): 423 µM | IC50 [2]: 4000 nM | IC50 (Vaccinia virus): 423000 nM

CCOC(=O)/C=C/[C@H](C[C@H]1CCNC1=O)NC(=O)[C@H](Cc1ccccc1)n1cccc(NC(=O)OCc2ccccc2)c1=O
IC50 (Human rhinovirus sp.): 469 nM

CCOC(=O)/C=C/[C@H](C[C@@H]1CCNC1=O)NC(=O)C1=Cc2ccccc2OC1
IC50 (Human rhinovirus sp.): 1190 nM

Nc1cc(OCCOCP(=O)(O)O)ncn1
IC50 (Human alphaherpesvirus 1; Human alphaherpesvirus 1): 6430 nM | IC50 [3]: 5220 nM

O=c1[nH]c(=O)n([C@H]2C[C@H](O)[C@@H](CO)O2)cc1I [IDOXURIDINE]
IC50 (Cowpox virus): 2 µM | IC50 (Vaccinia virus): 6000 nM

Cc1cn([C@H]2C[C@H](N=[N+]=[N-])[C@@H](CO)O2)c(=O)[nH]c1=O [ZIDOVUDINE]
IC50 [2]: 5 nM | IC50 [1]: 5 nM

CCOC(=O)/C=C/[C@H](CCC(N)=O)NC(=O)[C@H](Cc1ccc(F)cc1)n1cccc(NC(=O)OCc2ccccc2)c1=O
IC50 (Human rhinovirus sp.): 14 nM

Nc1nc(N)c(-c2ccccc2)c(OCCOCP(=O)(O)O)n1
IC50 (Human alphaherpesvirus 1; Human alphaherpesvirus 1): 1.2 nM | IC50 (Human alphaherpesvirus 2; Human alphaherpesvirus 2): 1.2 nM | IC50 [2]: 0.3 nM | IC50 [1]: 0.3 nM | IC50 (Human betaherpesvirus 5): 0.15 nM | IC50 (Vaccinia virus): 1.2 nM | IC50 (Human alphaherpesvirus 3): 0.15 nM

C=CCc1c(N)nc(N)nc1OCCOCP(=O)(O)O
IC50 (Human alphaherpesvirus 1; Human alphaherpesvirus 1): 1.2 nM | IC50 (Human alphaherpesvirus 2; Human alphaherpesvirus 2): 1.2 nM | IC50 [2]: 0.3 nM | IC50 [1]: 0.79 nM | IC50 (Human betaherpesvirus 5): 0.15 nM | IC50 (Vaccinia virus): 1.2 nM | IC50 (Human alphaherpesvirus 3): 0.15 nM

Nc1nc(N)n(CCOCP(=O)(O)O)c(=O)c1C1CC1
IC50 (Human alphaherpesvirus 1; Human alphaherpesvirus 1): 1.2 nM | IC50 (Human alphaherpesvirus 2; Human alphaherpesvirus 2): 0.12 nM | IC50 [2]: 0.3 nM | IC50 [1]: 0.3 nM | IC50 (Human betaherpesvirus 5): 0.15 nM | IC50 (Vaccinia virus): 1.2 nM

CC(C)OP(=O)(COCCSc1cc(N)nc(N)n1)OC(C)C
IC50 (Human alphaherpesvirus 1; Human alphaherpesvirus 1): 1.1 nM | IC50 (Human alphaherpesvirus 2; Human alphaherpesvirus 2): 1.1 nM | IC50 [1]: 0.143 nM | IC50 (Human alphaherpesvirus 3): 0.137 nM

CCOC(=O)/C=C/[C@H](CCC(N)=O)NC(=O)[C@H](Cc1ccccc1)n1cccc(NC(C)=O)c1=O
IC50 (Human rhinovirus sp.): 888 nM

From ChEMBL document CHEMBL1136837, “Unified QSAR approach to antimicrobials. 4. Multi-target QSAR modeling and comparative multi-distance study of the giant components of antiviral drug-drug complex networks” (Bioorg Med Chem, 2009)
